Measurements reported in patent publication US20190275097A1, “Lycopene from Momordica Cochinchinnensis Spreng., methods and formulations” (priority 2018, published 2019).

Assays:
[1] = Gac pulp consumed alone, 30-day feeding trial; cited from earlier work
caco cell = experiment: Bioaccessibility studies using in-vitro digestion/caco cell techniques; assay type: in vitro ADME; settings: carotenoids from Gac pulp
Text: The good absorption and transport of carotenoids after gac pulp consumption are probably due to its soft texture and to these high levels of fatty acids. […] This is in sharp contrast to other carotenoid rich fruits, which show a relatively low carotenoid bioavailability due to the lack of uptake enhancing lipids.

bioavailability (bioaccessibility), in-vitro digestion/caco cell (caco cell) | Structure (SMILES) | bioavailability: change in the human circulation after feeding trial [1]
high bioavailability | CC1=C(/C=C/C(C)=C/C=C/C(C)=C/C=C/C=C(C)/C=C/C=C(C)/C=C/C2=C(C)CCCC2(C)C)C(C)(C)CCC1 [beta-carotene] | significant increase
high bioavailability | CC(C)=CCC/C(C)=C/C=C/C(C)=C/C=C/C(C)=C/C=C/C=C(C)/C=C/C=C(C)/C=C/C=C(\C)CCC=C(C)C [lycopene] | significant increase
